Data on twelve compounds can be found in ChEMBL document CHEMBL1147447, “Discovery and in vitro evaluation of potent TrkA kinase inhibitors: oxindole and aza-oxindoles” (Bioorg Med Chem Lett, 2004).

Assay [1] addresses T1, High affinity nerve growth factor receptor (Homo sapiens, UniProt P04629). Put plainly: (§1) Inhibition of receptor Tyrosine kinase A, TrkA (nerve growth factor receptor).
Target sequence in this assay (P04629 whole entry): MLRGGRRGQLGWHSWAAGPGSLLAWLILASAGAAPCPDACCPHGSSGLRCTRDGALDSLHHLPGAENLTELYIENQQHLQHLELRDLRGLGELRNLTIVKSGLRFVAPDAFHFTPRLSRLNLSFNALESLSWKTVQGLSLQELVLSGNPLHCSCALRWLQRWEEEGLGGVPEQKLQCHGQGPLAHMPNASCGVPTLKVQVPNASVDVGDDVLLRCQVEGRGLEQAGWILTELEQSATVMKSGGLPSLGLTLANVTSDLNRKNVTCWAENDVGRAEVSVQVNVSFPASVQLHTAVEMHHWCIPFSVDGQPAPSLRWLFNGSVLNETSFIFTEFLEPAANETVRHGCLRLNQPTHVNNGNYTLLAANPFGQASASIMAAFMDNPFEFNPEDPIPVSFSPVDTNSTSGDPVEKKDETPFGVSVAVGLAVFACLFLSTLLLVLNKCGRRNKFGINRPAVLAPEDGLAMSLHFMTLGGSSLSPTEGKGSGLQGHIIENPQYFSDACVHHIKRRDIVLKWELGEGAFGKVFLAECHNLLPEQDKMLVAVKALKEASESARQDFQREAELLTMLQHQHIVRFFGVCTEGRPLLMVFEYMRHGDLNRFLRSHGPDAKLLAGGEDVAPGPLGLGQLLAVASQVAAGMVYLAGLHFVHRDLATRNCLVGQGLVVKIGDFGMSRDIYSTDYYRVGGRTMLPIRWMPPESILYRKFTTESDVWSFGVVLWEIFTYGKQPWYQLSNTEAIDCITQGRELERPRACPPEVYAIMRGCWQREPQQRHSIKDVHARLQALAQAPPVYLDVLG
Assay [2] deals with RAF proto-oncogene serine/threonine-protein kinase (Homo sapiens, UniProt P04049). Briefly: Inhibition of c-Raf1 kinase.
The target in assay [3] is Cyclin-dependent kinase 2/cyclin A (Homo sapiens, UniProt P24941). Briefly: Inhibition of Cyclin-dependent kinase 2 cyclin A. In kind it is protein-complex assay.
Assay [4] deals with T1, High affinity nerve growth factor receptor. The assay is described as §1. This is another data set of the same source.
Target sequence in this assay (P04629 33-796 limits assumed): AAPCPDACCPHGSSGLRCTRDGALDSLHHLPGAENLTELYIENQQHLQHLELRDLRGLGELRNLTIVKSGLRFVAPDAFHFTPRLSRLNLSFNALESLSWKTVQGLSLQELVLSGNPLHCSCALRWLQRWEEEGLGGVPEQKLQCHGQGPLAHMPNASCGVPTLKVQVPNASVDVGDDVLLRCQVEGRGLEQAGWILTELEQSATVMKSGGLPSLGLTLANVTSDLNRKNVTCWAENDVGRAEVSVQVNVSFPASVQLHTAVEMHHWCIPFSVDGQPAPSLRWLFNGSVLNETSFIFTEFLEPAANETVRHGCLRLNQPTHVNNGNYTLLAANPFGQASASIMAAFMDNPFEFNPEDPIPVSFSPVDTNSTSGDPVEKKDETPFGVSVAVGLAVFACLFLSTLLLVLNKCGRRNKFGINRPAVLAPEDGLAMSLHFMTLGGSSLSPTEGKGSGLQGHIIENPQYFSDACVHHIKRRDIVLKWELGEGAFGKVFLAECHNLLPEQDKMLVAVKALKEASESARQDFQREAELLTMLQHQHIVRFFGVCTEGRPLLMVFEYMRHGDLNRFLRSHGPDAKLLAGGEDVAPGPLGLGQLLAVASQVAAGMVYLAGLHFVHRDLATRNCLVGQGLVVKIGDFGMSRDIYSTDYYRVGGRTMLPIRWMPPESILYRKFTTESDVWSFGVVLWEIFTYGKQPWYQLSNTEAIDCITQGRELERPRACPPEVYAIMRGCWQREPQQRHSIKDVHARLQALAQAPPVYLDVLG
Assay [5] in a line: Inhibition prostate cancer growth in 10 diverse animal models. In kind it is functional, tissue-based. The following applies: Prostate gland.

Each structure is given as a SMILES string. The source made the active and inactive calls. The calls are words filed in the database; no cut-off is given here. Where only a bound is given, the exact number is not on record here.

Sequence of RAF proto-oncogene serine/threonine-protein kinase (P04049 whole entry): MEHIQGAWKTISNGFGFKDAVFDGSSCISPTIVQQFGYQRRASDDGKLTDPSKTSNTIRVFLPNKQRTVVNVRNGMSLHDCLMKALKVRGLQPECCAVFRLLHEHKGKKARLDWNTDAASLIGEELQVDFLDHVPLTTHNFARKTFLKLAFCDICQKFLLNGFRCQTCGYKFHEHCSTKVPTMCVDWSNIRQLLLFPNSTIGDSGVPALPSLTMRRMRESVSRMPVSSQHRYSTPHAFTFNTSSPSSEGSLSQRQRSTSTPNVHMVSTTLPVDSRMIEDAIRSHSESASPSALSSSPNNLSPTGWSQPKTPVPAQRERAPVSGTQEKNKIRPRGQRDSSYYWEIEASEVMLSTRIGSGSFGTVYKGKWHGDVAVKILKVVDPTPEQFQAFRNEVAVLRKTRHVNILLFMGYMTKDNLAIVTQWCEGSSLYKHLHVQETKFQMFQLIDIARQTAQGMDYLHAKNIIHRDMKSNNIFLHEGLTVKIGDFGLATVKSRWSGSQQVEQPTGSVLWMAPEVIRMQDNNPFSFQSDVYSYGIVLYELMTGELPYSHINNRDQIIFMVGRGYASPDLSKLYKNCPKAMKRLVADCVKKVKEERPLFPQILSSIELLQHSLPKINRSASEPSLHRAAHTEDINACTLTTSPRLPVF

The term IC50 denotes the concentration that inhibits the measured activity by half. A higher IC50 goes with lower potency. Compound `O=C1Nc2ccc3ncsc3c2/C1=C/Nc1ccc(S(=O)(=O)Nc2ccccn2)cc1` came in with an IC50 in assay [1] of 0.009 µM.

As to `Cn1cc(/C=C2\C(=O)Nc3ncccc32)c2ccccc21`, the figures for the IC50 in assay [2], in assay [3] and in assay [1] were 7.2 µM, over 6 µM and 0.012 µM, respectively.

Consider `O=C1Nc2ccccc2/C1=C1\CCc2cc(O)ccc21`, for which the IC50 was over 10 µM in assay [2], 8 µM in assay [3] and 0.006 µM in assay [1].

The compound `Cn1cc(/C=C2\C(=O)Nc3cccnc32)c2ccccc21` displayed an IC50 in assay [2] of over 12 µM.

As to `O=C1Nc2ncc(Br)cc2/C1=C/c1cccc(Oc2ccccc2)c1`, the IC50 is over 50 µM in assay [2], over 50 µM in assay [3] and 0.061 µM in assay [1].

On to `C[C@]12O[C@H](C[C@]1(O)CO)n1c3ccccc3c3c4c(c5c6ccccc6n2c5c31)CNC4=O`, for which the result in assay [4] and in assay [5] was Active.

Turning to `NS(=O)(=O)c1cccc(N/C=C2\C(=O)Nc3ccccc32)c1` [GW275616X], the IC50 in assay [2] is over 10 µM; in assay [3] it was over 10 µM; in assay [1], 0.063 µM.

Regarding `CS(=O)(=O)Nc1ccc(N/C=C2\C(=O)Nc3ccccc32)cc1` [GW278681X], the IC50 is over 10 µM in assay [2], 8 µM in assay [3] and 0.006 µM in assay [1].

As to `O=C1Nc2ccccc2/C1=C/Nc1ccc2[nH]c(=O)[nH]c2c1` [GW284408X], the IC50 in assay [2] is over 10 µM; in assay [3], 2.5 µM; in assay [1], 0.007 µM.

As to `O=C1Nc2ccccc2/C1=C/Nc1ccc(-n2cncn2)cc1` [GW301789X], the IC50 was over 10 µM in assay [2], 7.2 µM in assay [3] and 0.008 µM in assay [1].

In assay [1], `O=C1Nc2ccc(I)cc2C1=Cc1cc(Br)c(O)c(Br)c1` [GW305074X] showed an IC50 of 4.7 µM.

On to `COc1ccccc1-c1cc(/C=C2\C(=O)Nc3ncc(Br)cc32)cc(Br)c1O` [GW442130X], for which the IC50 stood at 0.7 µM in assay [2], 10.4 µM in assay [3] and 0.008 µM in assay [1].
